Measured values taken from patent US20050112573A1, “Method of detecting toxic substance” (priority 2001, published 2005).

System: yeast genes (level of expressed mRNA)
Experiment: DNA chip analysis of expressed mRNA of yeast genes after 2 h culture with a toxic chemical substance
Assay type: cell-based, Saccharomyces cerevisiae S288C
How it was run: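 Values are treated-to-control fluorescence ratios from a whole-yeast-genome DNA chip (65° C, over 12 h hybridization) using Cy3/Cy5-labelled cDNA from mRNA. Log-phase S288C cells in YPD at 25° C were exposed 2 h to a toxicant at sublethal, growth-inhibiting concentration.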

## manganese ethylenebis(dithiocarbamate) [(8)]
Yeast gene YKL086W, ratio to control without chemical
  The level of expressed mRNA in the presence of chemical substance/: 1.1
Yeast gene YKL096W
  The level of expressed mRNA in the presence of chemical substance/The level of expressed mRNA in the absence of chemical substance: 0.5
Yeast gene YKL151C, ratio to control without chemical substance, 2 h culture
  The level of expressed mRNA in the presence of chemical substance/: 1.0
Yeast gene YKL153W, ratio to control without chemical substance, 2 h culture
  The level of expressed mRNA in the presence of chemical substance/: 0.7
Yeast gene YKL165C
  The level of expressed mRNA in the presence of chemical substance/The level of expressed mRNA in the absence of chemical substance: 1.5
Yeast gene YKL193C
  The level of expressed mRNA in the presence of chemical substance/The level of expressed mRNA in the absence of chemical substance: 1.4
Yeast gene YKL195W, ratio to control without chemical substance, 2 h culture
  The level of expressed mRNA in the presence of chemical substance/: 1.2
Yeast gene YKR009C
  The level of expressed mRNA in the presence of chemical substance/in the absence of chemical substance: 0.9
Yeast gene YKR091W, ratio to control without chemical
  The level of expressed mRNA in the presence of chemical substance/: 1.3
Yeast gene YLR054C, ratio to control without chemical substance, 2 h culture
  The level of expressed mRNA in the presence of chemical substance/: 1.1
Yeast gene YLR120C
  The level of expressed mRNA in the presence of chemical substance/The level of expressed mRNA in the absence of chemical substance: 0.9
Yeast gene YLR136C
  The level of expressed mRNA in the presence of chemical substance/The level of expressed mRNA in the absence of chemical substance: 1.1
Yeast gene YLR149C, ratio to control without chemical substance, 2 h culture
  The level of expressed mRNA in the presence of chemical substance/: 1.1
Yeast gene YLR152C, ratio to control without chemical substance, 2 h culture
  The level of expressed mRNA in the presence of chemical substance/: 1.2
Yeast gene YLR178C
  The level of expressed mRNA in the presence of chemical substance/The level of expressed mRNA in the absence of chemical substance: 0.9
Yeast gene YLR194C, ratio to control without chemical
  The level of expressed mRNA in the presence of chemical substance/: 1.0
Yeast gene YLR250W
  The level of expressed mRNA in the presence of chemical substance/The level of expressed mRNA in the absence of chemical substance: 1.3
Yeast gene YLR324W, ratio to control without chemical substance, 2 h culture
  The level of expressed mRNA in the presence of chemical substance/: 1.0
Yeast gene YLR327C
  The level of expressed mRNA in the presence of chemical substance/The level of expressed mRNA in the absence of chemical substance: 2.2
Yeast gene YLR350W, ratio to control without chemical substance, 2 h culture
  The level of expressed mRNA in the presence of chemical substance/: 1.0
Yeast gene YLR351C
  The level of expressed mRNA in the presence of chemical substance/in the absence of chemical substance: 1.2
Yeast gene YLR356W
  The level of expressed mRNA in the presence of chemical substance/The level of expressed mRNA in the absence of chemical substance: 0.7
Yeast gene YLR362W
  The level of expressed mRNA in the presence of chemical substance/The level of expressed mRNA in the absence of chemical substance: 1.4
Yeast gene YLR375W
  The level of expressed mRNA in the presence of chemical substance/in the absence of chemical substance: 1.0
Yeast gene YLR387C, ratio to control without chemical substance, 2 h culture
  The level of expressed mRNA in the presence of chemical substance/: 1.4
Yeast gene YLR391W
  The level of expressed mRNA in the presence of chemical substance/The level of expressed mRNA in the absence of chemical substance: 0.7
Yeast gene YLR429W
  The level of expressed mRNA in the presence of chemical substance/The level of expressed mRNA in the absence of chemical substance: 1.0
Yeast gene YLR460C, ratio to control without chemical substance, 2 h culture
  The level of expressed mRNA in the presence of chemical substance/: 8.1
Yeast gene YML117W, ratio to control without chemical substance, 2 h culture
  The level of expressed mRNA in the presence of chemical substance/: 0.7
Yeast gene YMR004W
  The level of expressed mRNA in the presence of chemical substance/The level of expressed mRNA in the absence of chemical substance: 1.0
Yeast gene YMR009W, ratio to control without chemical substance, 2 h culture
  The level of expressed mRNA in the presence of chemical substance/: 1.4
Yeast gene YMR067C, ratio to control without chemical substance, 2 h culture
  The level of expressed mRNA in the presence of chemical substance/: 1.1
Yeast gene YMR090W, ratio to control without chemical substance, 2 h culture
  The level of expressed mRNA in the presence of chemical substance/: 3.9
Yeast gene YMR094W
  The level of expressed mRNA in the presence of chemical substance/The level of expressed mRNA in the absence of chemical substance: 1.0
Yeast gene YMR095C, ratio to control without chemical
  The level of expressed mRNA in the presence of chemical substance/: 1.2
Yeast gene YMR097C, ratio to control without chemical substance, 2 h culture
  The level of expressed mRNA in the presence of chemical substance/: 1.5
Yeast gene YMR102C, ratio to control without chemical substance, 2 h culture
  The level of expressed mRNA in the presence of chemical substance/: 1.0
Yeast gene YMR104C
  The level of expressed mRNA in the presence of chemical substance/The level of expressed mRNA in the absence of chemical substance: 0.9
Yeast gene YMR107W, ratio to control without chemical substance, 2 h culture
  The level of expressed mRNA in the presence of chemical substance/: 1.3
Yeast gene YMR180C, ratio to control without chemical substance, 2 h culture
  The level of expressed mRNA in the presence of chemical substance/: 1.8
Yeast gene YMR184W, ratio to control without chemical substance, 2 h culture
  The level of expressed mRNA in the presence of chemical substance/: 1.9
Yeast gene YMR191W, ratio to control without chemical substance, 2 h culture
  The level of expressed mRNA in the presence of chemical substance/: 1.1
Yeast gene YMR219W
  The level of expressed mRNA in the presence of chemical substance/The level of expressed mRNA in the absence of chemical substance: 1.1
Yeast gene YMR226C
  The level of expressed mRNA in the presence of chemical substance/The level of expressed mRNA in the absence of chemical substance: 1.6
Yeast gene YMR267W
  The level of expressed mRNA in the presence of chemical substance/in the absence of chemical substance: 1.5
Yeast gene YMR275C
  The level of expressed mRNA in the presence of chemical substance/The level of expressed mRNA in the absence of chemical substance: 0.8
Yeast gene YMR276W
  The level of expressed mRNA in the presence of chemical substance/The level of expressed mRNA in the absence of chemical substance: 0.8
Yeast gene YMR278W
  The level of expressed mRNA in the presence of chemical substance/in the absence of chemical substance: 1.1
Yeast gene YMR293C
  The level of expressed mRNA in the presence of chemical substance/in the absence of chemical substance: 1.0
Yeast gene YMR295C, ratio to control without chemical substance, 2 h culture
  The level of expressed mRNA in the presence of chemical substance/: 1.0
Yeast gene YMR314W
  The level of expressed mRNA in the presence of chemical substance/The level of expressed mRNA in the absence of chemical substance: 1.2
Yeast gene YMR316W, ratio to control without chemical substance, 2 h culture
  The level of expressed mRNA in the presence of chemical substance/: 1.6
Yeast gene YNL006W
  The level of expressed mRNA in the presence of chemical substance/The level of expressed mRNA in the absence of chemical substance: 1.1
Yeast gene YNL007C
  The level of expressed mRNA in the presence of chemical substance/The level of expressed mRNA in the absence of chemical substance: 0.8
Yeast gene YNL044W, ratio to control without chemical substance, 2 h culture
  The level of expressed mRNA in the presence of chemical substance/: 1.8
